Data taken from patent US8962844B2, “1,3,4-oxadiazole and 1,3,4-thiadiazole β-lactamase inhibitors” (priority 2012, dated 2015).
Structures can show the parent of a compound that is named as a salt.

Experiments:
[1] = tested on: bacterial strains that express the class D cephalosporinase OXA-15; test: Standard BLI potentiation MIC / synergy MIC (sMIC) assays run in the presence of a β-lactam, OXA-15 expressing strains; format: cell-based, E. coli; details: BLI in combination with a β-lactam; comparison with Avibactam (comparator compound CCC)
Outline: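 Isogenic E. coli DH10B carrying cloned β-lactamase genes on pBR322-derived plasmid (blaTEM-1 promoter, tetracycline 25 μg/mL) tested by CLSI broth microdilution in CAMHB. Test compound and β-lactam each diluted and combined; MIC reported in presence of β-lactam.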

[2] = tested on: bacterial strains that express KPC β-lactamases; test: Standard BLI potentiation MIC / synergy MIC (sMIC) assays run in the presence of a β-lactam, KPC expressing strains; format: cell-based; details: more active for at least one KPC strain and/or better spectrum of activity than Avibactam; BLI in combination with a β-lactam
Excerpt: Unless otherwise indicated, the activity of the BLI compounds can be described by the MIC value obtained from a Synergy MIC assay or a BLI potentiation assay (e.g as described herein), both of which are run in the presence of a β-lactam.
A set of β-lactamase expressing isogenic E. coli strains was constructed by cloning a β-lactamase gene into a customized derivative of pBR322 (GenBank Accession Number J01749) and transforming the engineered plasmids into E. coli. The NdeI restriction site within the plasmid backbone of pBR322 was removed to generate pBR322 ΔNdeI. The pBR322 ΔNdeI vector itself, minus the blaTEM-1 gene, was amplified using two primers: (1) pBR-Pbla 5′-cgcatatgactettectttttcaatattattg-3, SEQ ID 1, a primer with an engineered NdeI restriction site at the 3′ end of the blaTEM-1 promoter and (2) pBR-vec-1 5′-[…]-3′, SEQ ID 2, a primer with an engineered BamHI restriction site at the 3′ end of the blaTEM-1 open reading frame. The chloramphenicol resistance gene, cat, was generated by PCR amplification from pKD3 (GenBank Accession Number AY048742) using primers with an engineered NdeI restriction site at the 5′ end (Pbla-cat 5′-[…]-3′, SEQ ID 3) and an engineered BamHI restriction site at the 3′ end (Vec-1-cat 5′-[…]-3′, SEQ ID 4) of the resistance gene. The two PCR products, pBR322 ΔNdeI and cat were ligated together generating pBR-CBST (pBR322 ΔNdeI ΔTEM-1::cat Seq. ID 5) which retains both the pBR322 tetracycline resistance cassette, tetA, and the plasmid origin of replication but the blaTEM-1 gene was replaced by the cat gene.
Using this engineering strategy a number of plasmids producing β-lactamase genes from different classes (see below) were generated using synthetic genes with an engineered NdeI restriction site at the 5′ end and BamHI restriction site at the 3′ end of each gene (GenScript). Both the synthetic β-lactamase genes and cat gene were ligated into the NdeI/BamHI sites of the pBR322 ΔNdeI PCR product and transformed into electrocompetent E. coli ElectroMax DH10B (Invitrogen/Life Technologies). E. coli DH10B harboring the recombinant plasmids were selected on LB agar (supplemented with 25 μg/mL tetracycline) and single isolated colonies were then inoculated into 5 mL LB media (supplemented with 25 μg/mL tetracycline), and incubated at 37° C. with aeration (250 rpm) for 18 hrs. The cultures were frozen back at −80° C. in 20% glycerol. The DNA sequence of the cloned β-lactamase genes was confirmed. The β-lactamase gene expression in the recombinant E. coli strains was driven by the blaTEM-1 promoter in the pBR-CBST plasmid and was characterized by MIC profiling of the E. coli recombinant strains against comparator β-lactam/BLI combinations in broth microdilution assay.
The experimental protocol was performed according to Clinical and Laboratory Standards Institute (CLSI) guidelines with modifications as described below (CLSI guidelines can be derived from the CLSI document M07-A9 published in January 2012: “Methods for Dilution Antimicrobial Susceptibility Tests for Bacteria That Grow Aerobically; Approved Standard-Ninth Edition”).
To prepare for MIC testing, frozen glycerol stocks of clinical isolates (Klebsiella pneumoniae, Eschericia coli, Enterobacter spp, Citrobacter spp, or Pseudomonas aeruginosa) were used to streak for isolated colonies on rich, non-selective, tryptic soy agar containing 5% sheep's blood (TSAB). Frozen glycerol stocks of laboratory engineered, isogenic E. coli strains, which contain cloned β-lactamase expressing plasmids were used to streak for isolated colonies on rich, selective LB agar supplemented with 25 μg/mL tetracycline to maintain the plasmid. All strains were incubated at 37° C. for 18-24 hrs.
On the day of testing, primary cultures were started by scraping off 5-10 colonies from the TSAB plates containing clinical strains or the tetracycline supplemented LB plates containing engineered strains. […]

SMILES | activity against bacterial strains that express the class D cephalosporinase OXA-15, compared with Avibactam [1] | activity and/or spectrum of activity against bacterial strains that express KPC β-lactamases, compared with Avibactam [2]
N=C(N)NC[C@H](O)c1nnc([C@@H]2CC[C@@H]3CN2C(=O)N3OS(=O)(=O)O)o1 [Compound 732, (2S,5R)-2-(5-((S)-2-guanidino-1-hydroxyethyl)-1,3,4-oxadiazol-2-yl)-7-oxo-1,6-diazabicyclo[3.2.1]octan-6-yl hydrogen sulfate] | more active than Avibactam | more active than Avibactam
N=C1NCC(c2nnc([C@@H]3CC[C@@H]4CN3C(=O)N4OS(=O)(=O)O)o2)N1 (stereo partly drawn) [Compound 767, (2S,5R)-2-(5-(2-iminoimidazolidin-4-yl)-1,3,4-oxadiazol-2-yl)-7-oxo-1,6-diazabicyclo[3.2.1]octan-6-yl hydrogen sulfate] | more active than Avibactam | more active than Avibactam
NC1(Cc2nnc([C@@H]3CC[C@@H]4CN3C(=O)N4OS(=O)(=O)O)o2)CC1 [Compound 724, (2S,5R)-2-(5-((1-aminocyclopropyl)methyl)-1,3,4-oxadiazol-2-yl)-7-oxo-1,6-diazabicyclo[3.2.1]octan-6-yl hydrogen sulfate] | more active than Avibactam | more active than Avibactam
NCCc1nnc([C@@H]2CC[C@@H]3CN2C(=O)N3OS(=O)(=O)O)o1 [Compound 703, (2S,5R)-2-(5-(2-aminoethyl)-1,3,4-oxadiazol-2-yl)-7-oxo-1,6-diazabicyclo[3.2.1]octan-6-yl hydrogen sulfate] | more active than Avibactam | more active than Avibactam
N=C(N)NCCc1nnc([C@@H]2CC[C@@H]3CN2C(=O)N3OS(=O)(=O)O)o1 [Compound 705, (2S,5R)-2-(5-(2-guanidinoethyl)-1,3,4-oxadiazol-2-yl)-7-oxo-1,6-diazabicyclo[3.2.1]octan-6-yl hydrogen sulfate] | more active than Avibactam | more active than Avibactam
N=C(N)NCC1(c2nnc([C@@H]3CC[C@@H]4CN3C(=O)N4OS(=O)(=O)O)o2)CC1 [Compound 723, (2S,5R)-2-(5-(1-(guanidinomethyl)cyclopropyl)-1,3,4-oxadiazol-2-yl)-7-oxo-1,6-diazabicyclo[3.2.1]octan-6-yl hydrogen sulfate] | more active than Avibactam | more active than Avibactam
O=C1N2C[C@@H](CC[C@H]2c2nnc(CCNC3CNC3)o2)N1OS(=O)(=O)O [Compound 745, (2S,5R)-2-(5-(2-(azetidin-3-ylamino)ethyl)-1,3,4-oxadiazol-2-yl)-7-oxo-1,6-diazabicyclo[3.2.1]octan-6-yl hydrogen sulfate] | more active than Avibactam | more active than Avibactam
N[C@H]1C[C@@H](c2nnc([C@@H]3CC[C@@H]4CN3C(=O)N4OS(=O)(=O)O)s2)C1 [Compound 795, (2S,5R)-2-(5-((1s,3R)-3-aminocyclobutyl)-1,3,4-thiadiazol-2-yl)-7-oxo-1,6-diazabicyclo[3.2.1]octan-6-yl hydrogen sulfate] | more active than Avibactam | more active than Avibactam
CC(C)(N)Cc1nnc([C@@H]2CC[C@@H]3CN2C(=O)N3OS(=O)(=O)O)o1 [Compound 737, (2S,5R)-2-(5-(2-amino-2-methylpropyl)-1,3,4-oxadiazol-2-yl)-7-oxo-1,6-diazabicyclo[3.2.1]octan-6-yl hydrogen sulfate] | more active than Avibactam | more active than Avibactam
NC1CCN(Cc2nnc([C@@H]3CC[C@@H]4CN3C(=O)N4OS(=O)(=O)O)o2)CC1 [Compound 774, (2S,5R)-2-(5-((4-aminopiperidin-1-yl)methyl)-1,3,4-oxadiazol-2-yl)-7-oxo-1,6-diazabicyclo[3.2.1]octan-6-yl hydrogen sulfate] | more active than Avibactam | more active than Avibactam
N[C@H]1C[C@@H](NCc2nnc([C@@H]3CC[C@@H]4CN3C(=O)N4OS(=O)(=O)O)o2)C1 [Compound 756, (2S,5R)-2-(5-((((1s,3R)-3-aminocyclobutyl)amino)methyl)-1,3,4-oxadiazol-2-yl)-7-oxo-1,6-diazabicyclo[3.2.1]octan-6-yl hydrogen sulfate] | more active than Avibactam | more active than Avibactam
N=C(N)N1CC(NCc2nnc([C@@H]3CC[C@@H]4CN3C(=O)N4OS(=O)(=O)O)o2)C1 [Compound 746, (2S,5R)-2-(5-(((1-carbamimidoylazetidin-3-yl)amino)methyl)-1,3,4-oxadiazol-2-yl)-7-oxo-1,6-diazabicyclo[3.2.1]octan-6-yl hydrogen sulfate] | more active than Avibactam | more active than Avibactam
O=C1N2C[C@@H](CC[C@H]2c2nnc(CCCC3CNC3)o2)N1OS(=O)(=O)O [Compound 743, (2S,5R)-2-(5-(3-(azetidin-3-yl)propyl)-1,3,4-oxadiazol-2-yl)-7-oxo-1,6-diazabicyclo[3.2.1]octan-6-yl hydrogen sulfate] | more active than Avibactam | more active than Avibactam
N[C@H]1CN[C@H](c2nnc([C@@H]3CC[C@@H]4CN3C(=O)N4OS(=O)(=O)O)o2)C1 [Compound 762, (2S,5R)-2-(5-((2S,4R)-4-aminopyrrolidin-2-yl)-1,3,4-oxadiazol-2-yl)-7-oxo-1,6-diazabicyclo[3.2.1]octan-6-yl hydrogen sulfate] | more active than Avibactam | more active than Avibactam
O=C1N2C[C@@H](CC[C@H]2c2nnc(C3CCNC3)o2)N1OS(=O)(=O)O (stereo partly drawn) [Compound 710, (2S,5R)-7-oxo-2-(5-(pyrrolidin-3-yl)-1,3,4-oxadiazol-2-yl)-1,6-diazabicyclo[3.2.1]octan-6-yl hydrogen sulfate] | more active than Avibactam | more active than Avibactam
